# Data reported in patent US20240199555A1, “APPLICATIONS OF BIASED LIGANDS OF THE SEROTONIN 5-HT7 RECEPTOR FOR THE TREATMENT OF PAIN, MULTIPLE SCLEROSIS AND THE CONTROL OF THERMOREGULATION” (Centre National de la Recherche Scientifique, priority 2021, published 2024).
# What was measured:
# [1] = biological target: h5-HT7R (Homo sapiens (Human), UniProt P34969); experiment: ERK1/2 and c-SRC phosphorylation by western blot in HEK-293 cells stably expressing h5-HT7R; assay type: cell-based
# Method: (A, B, C, D, E, F) Time course of activation of ERK1/2 after stimulation of HEK-293 cells stably expressing h5-HT7R with various 5-HT7R ligands used at 10 μM. The cells were stimulated for the indicated periods and assayed for detection of phospho ERK1/2 by western blot analysis. […] Representative blots of three independent experiments are illustrated. The histogram on the right of each panel represents the results of densitometric analyses of three independent experiments. Data are means±SEM. * p<0.05; ** p<0.01; *** p<0.001 versus non stimulated cells (NS).
# HEK-293 cells stably expressing h5-HT7R were stimulated with increasing concentrations of 5-CT or Serodolin for 7 minutes. Cells were lysed, and western blot analysis was performed. Representative Western blots from three independent experiments were shown in A-C. Quantification was performed by densitometric analyses from three independent experiments. Analyzed data were plotted versus log concentration for each compounds (A; B) or as bar graph (C) on the right panel.
# Time course of activation of ERK1/2 after stimulation of HEK-293 cells stably expressing h5-HT7R with JLB060, a 5-HT7R ligand used at 10 μM. The cells were stimulated for the indicated periods and assayed for detection of phospho ERK1/2 by western blot analysis.
# (§1) Treated cells were washed twice with cold PBS and lysed on ice for 30 min in lysis buffer containing 50 mM Tris pH 7.5, 150 mM NaCl, 10 mM EDTA, 1% Triton X-100 and the protease inhibitor cocktail. Cell lysates were centrifuged at 10,000×g for 10 min. Supernatant was then solubilized in Laemmli buffer with 0.1% β-mercaptoethanol. Samples were resolved by electrophoresis on 10% SDS-PAGE, and transferred electrophoretically to polyvinylidene fluoride (PVDF) membranes (GE Healthcare Life Sciences). […] membranes were washed in Tris-buffered saline (TBS; pH 7.4) containing 0.1% Tween-20 (TBS-T; 0.1%) and blocked with 5% (w/v) dry milk TBS-T 0.1% for 30 min. […] Blots were probed with anti-arrestin, anti-Phospho-ERK or anti-ERK antibody (1:2000), anti Phospho-SRC, anti SRC antibody, anti-HA or anti-GFP or anti-actin antibodies. Horseradish-peroxidase-conjugated goat anti-rabbit, anti-mouse or anti-rat antibodies (1:33,000) were used as secondary antibodies. Immunoreactive bands were detected using the Dura detection kit. Protein quantification on blots was performed using Quantity One software (Biorad).
# as §1, with “12%” for “10%”, “with” for “with anti-arrestin,”, “anti-Phospho-ERK (1:2000)” for “anti-Phospho-ERK”, “anti-GAPDH” for “anti-ERK”, “(1:5000). […]” for “(1:2000), anti Phospho-SRC, anti SRC antibody, anti-HA or anti-GFP or anti-actin antibodies. Horseradish-peroxidase-conjugated goat anti-rabbit, anti-mouse or anti-rat antibodies (1:33,000) were used as secondary antibodies.”
# ERK phosphorylation was monitored by western blotting after treatment of cells with 10 μM of ligands at different times ranging from 2 to 60 minutes.
# [2] = Pharmacokinetic study in plasma and brain; assay type: in vivo, C57BL/6 mice; conditions: 5 mg/kg, subcutaneous
# Method: FIG. 20: Pharmacokinetic study of E55888 and Serodolin. Concentration-time profile of E55888 (reference agonist) and Serodolin in plasma (A) and brain (B) following subcutaneous injection of a unique dose 5 mg/kg of each compound in C57BL/6 mice. Data represent the mean concentration±SEM of n=4 each time point.
# The pharmacokinetic study was undertaken to evaluate and compare the quantity of Serodolin and E55888 in plasma and brain samples from C57BL/6 mice (Janvier, Le Genest France) at several time points. Seven weeks old C57BL/6 mice (n=4 animals per group) received by subcutaneous injection a unique dose (5 mg/kg) of Serodolin or E55888 (U103013S, Achemblock). Control group received vehicle (solution of 20% DMSO and 5% Tween 80 diluted in NaCl). […] Blank vehicle mouse brains homogenates and plasma were used to established standard curves of Serodolin or E55888. […] Study samples, brains homogenates and plasma, were prepared for protein precipitation by adding 85 μL of acetonitrile+5-CT to 20 μL of samples. LC-HRMS analysis for PK studies were performed on a maXis Q-TOF mass spectrometer (Bruker, Bremen, Germany) coupled to an U3000 RSLC UHPLC system (Dionex, Germering, Germany). Separation was obtained using an Acquity UPLC BEH C18 column (2.1×50 mm; 1.7 μm) (Waters, Saint-Quentin-en-Yvelines, France) thermostated at 40° C. with a gradient of water (solvent A) and acetonitrile (solvent B), both acidified with 0.1% formic acid at 500 μL/min. […] The samples were randomized prior analysis; 1.25 μL were injected for plasma and 8 μL for brains. […] Area were integrated from extracted ion chromatograms (EIC) of [M+H]+ ions using QuantAnalysis 4.4 software (Bruker) with a tolerance of ±0.005 u.
# The pharmacokinetics profile of both compounds were evaluated. The inventors used liquid chromatography tandem mass spectrometry (UPLC-MS/MS) method to perform PK study and measure Serodolin vs E55888 levels in vivo.
# Chain of h5-HT7R (P34969 1-432): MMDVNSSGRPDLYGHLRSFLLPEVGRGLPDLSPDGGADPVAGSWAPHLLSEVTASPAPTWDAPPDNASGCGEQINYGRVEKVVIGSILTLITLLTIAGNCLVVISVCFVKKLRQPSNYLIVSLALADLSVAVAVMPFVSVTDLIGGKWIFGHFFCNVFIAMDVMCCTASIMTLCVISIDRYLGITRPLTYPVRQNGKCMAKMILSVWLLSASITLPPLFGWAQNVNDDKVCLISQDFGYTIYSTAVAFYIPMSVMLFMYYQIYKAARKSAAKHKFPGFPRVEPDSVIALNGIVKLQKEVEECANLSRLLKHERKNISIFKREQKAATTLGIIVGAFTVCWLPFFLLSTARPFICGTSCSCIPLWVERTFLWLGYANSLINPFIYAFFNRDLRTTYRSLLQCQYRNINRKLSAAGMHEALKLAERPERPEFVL
smiles,measurement,setting,value
O=c1[nH]c2ccccc2n1CN1CCN(c2ccc(F)cc2)CC1 [Serodolin],induction of ERK phosphorylation,"[1]; 10 μM of ligand or increasing concentrations, western blot",concentration-dependent increase of ERK phosphorylation
same,ERK phosphorylation at the maximal effect,"[1]; 10 μM of ligand, 2 to 60 minutes",409±34 % of control
same,phosphorylation of c-SRC kinase at Tyr416,"[1]; western blot, 7 minutes",induced only after activation of 5-HT7R by Serodolin
same,passage of the brain blood barrier,[2],ability to pass the brain blood barrier
same,time of maximum of detection,[2]; both in plasma and brain,15 to 30 min
same,maximum of detection in brain,[2]; brain,0.4 ± 0.8 µg/mL
same,maximum of detection in plasma,[2]; plasma,2.9 ± 0.8 µg/mL
same,time after which eliminated / undetectable,[2]; plasma and brain,240 min
